Molecules are shown by their SMILES. Counter-ions that a name gives are not always drawn. Like-named read-outs stand apart in the source and are kept apart here.

The target of assay [1] is T1, SARS-CoV-2 PLpro (nsp3 1564–1878) (Severe acute respiratory syndrome coronavirus 2, UniProt P0DTD1). Kind of assay: biochemical. Also on record: FRET-quenched peptide (Pro3) cleavage by PLpro, 10 min pre-incubation, slope over 20 min, normalised to no-compound control. The following applies: high concentration screen, read-out: % of control remaining.
Assay [2] deals with T1, SARS-CoV-2 PLpro (nsp3 1564–1878). Kind of assay: biochemical. Further details: FRET-quenched peptide (Pro3) cleavage by PLpro, 10 min pre-incubation, slope over 20 min, normalised to no-compound control. The note with it: low concentration screen, read-out: % of control remaining.

For `CN1CCc2cc(O)cc3c2[C@H]1Cc1ccc(O)c(O)c1-3` [R(-)-2,10,11-Trihydroxyaporphine hybrobromide], in assay [1] (Well no.=588), the remaining activity at 3.75 µM was determined as 100%. For the same molecule, in assay [2] (Well no.=588), the remaining activity at 1.25 µM was found to be 104%.
As for `COc1ccc(CCNC[C@@H](O)c2ccc(O)cc2)cc1OC` [R(-)-Denopamine], the remaining activity at 3.75 µM in assay [1] (Well no.=1498) was 100%. The remaining activity at 1.25 µM in assay [2] (Well no.=1498) was 103%.
`C=CCN1CCc2cccc3c2[C@H]1Cc1ccc(O)c(O)c1-3` [R(-)-N-Allylnorapomorphine hydrobromide]: in assay [1] (Well no.=398), the remaining activity at 3.75 µM was found to be 97.4%. The remaining activity at 1.25 µM in assay [2] (Well no.=398) was found to be 98.8%.
For the molecule `CCCN1CCc2cccc3c2[C@H]1Cc1ccc(O)c(O)c1-3` [R(-)-Propylnorapomorphine hydrochloride], the remaining activity at 3.75 µM in assay [1] (Well no.=540) was 108%. Further, the remaining activity at 1.25 µM in assay [2] (Well no.=540) was 104%.
`COc1cc2c(cc1OC)[C@@H](c1ccccc1)CN(C)CC2` [R(-)-SCH-12679 maleate]: in assay [1] (Well no.=1231), the remaining activity at 3.75 µM was determined as 104%. In assay [2] (Well no.=1231), the remaining activity at 1.25 µM amounted to 101%.
As to `[N-]=[N+]=N[C@]1(CO)O[C@@H](n2ccc(N)nc2=O)[C@H](O)[C@@H]1O` [R-1479], the remaining activity at 3.75 µM in assay [1] (Well no.=7756) was found to be 99%. Also, the remaining activity at 1.25 µM in assay [2] (Well no.=7756) was found to be 97.4%.
On to `CCCN(CCC)[C@@H]1CCc2ccc(O)cc2C1` [R-(+)-7-Hydroxy-DPAT hydrobromide], for which the remaining activity at 3.75 µM in assay [1] (Well no.=428) turned out to be 96.9%. Also, in assay [2] (Well no.=428), the remaining activity at 1.25 µM is 97.2%.
With `CCCN(CCC)[C@@H]1CCc2cccc(O)c2C1` [R-(+)-8-Hydroxy-DPAT hydrobromide], the remaining activity at 3.75 µM in assay [1] (Well no.=762) was determined as 88.8%. Further, the remaining activity at 1.25 µM in assay [2] (Well no.=762) is 92.2%.
Take `CNCC[C@@H](Oc1ccc(C(F)(F)F)cc1)c1ccccc1` [R-(-)-Fluoxetine hydrochloride]: in assay [1] (Well no.=419), the remaining activity at 3.75 µM was 92.4%. For the same molecule, the remaining activity at 1.25 µM in assay [2] (Well no.=419) is 92.7%.
Take `N[C@@H](Cc1ccccc1)C(=O)N1C/C(=C/c2ccc(Cl)c(Cl)c2)C(=O)/C(=C\c2ccc(Cl)c(Cl)c2)C1` [RA190]: the remaining activity at 3.75 µM in assay [1] (Well no.=8408) worked out at 89.8%. In addition, the remaining activity at 1.25 µM in assay [2] (Well no.=8408) was found to be 89.3%.
In the case of `COc1ccc(OC)c(C2C(C#N)=C(N)Oc3n[nH]c(-c4ccc5ccccc5c4)c32)c1` (stereo not drawn) [RBC8], the remaining activity at 3.75 µM in assay [1] (Well no.=7809) was found to be 113%. In addition, the remaining activity at 1.25 µM in assay [2] (Well no.=7809) turned out to be 105%.
`CC(C)Oc1cccnc1N(C)C1CCN(Cc2ccc(I)cc2)CC1` [RBI-257 maleate]: the remaining activity at 3.75 µM in assay [1] (Well no.=1402) came to 105%. Besides, the remaining activity at 1.25 µM in assay [2] (Well no.=1402) worked out at 103%.
With `CCCCCC(O)c1cccc(OCc2ccc3ccccc3n2)c1` (stereo not drawn) [REV 5901], in assay [1] (Well no.=1158), the remaining activity at 3.75 µM was 101%. The remaining activity at 1.25 µM in assay [2] (Well no.=1158) amounted to 104%.
As to `CCCCCC(O)c1cccc(OCc2ccc3ccccc3n2)c1` (stereo not drawn) [REV-5901], the remaining activity at 3.75 µM in assay [1] (Well no.=4520) turned out to be 95.4%. Also, the remaining activity at 1.25 µM in assay [2] (Well no.=4520) was 92.4%.
For `O=C(O)C(Cc1c[nH]c2ccccc12)N1C(=O)c2ccccc2C1=O` (stereo not drawn) [RG108], the remaining activity at 3.75 µM worked out at 104% in assay [1] (Well no.=4791) and 85.1% in assay [1] (Well no.=8370). The remaining activity at 1.25 µM worked out at 103% in assay [2] (Well no.=4791) and 88.9% in assay [2] (Well no.=8370).
Turning to `CCOc1cc(C(C)(C)C)ccc1C1=N[C@@](C)(c2ccc(Cl)cc2)[C@@](C)(c2ccc(Cl)cc2)N1C(=O)N1CCN(CCCS(C)(=O)=O)CC1` [RG7112], in assay [1] (Well no.=6676), the remaining activity at 3.75 µM turned out to be 94%. Moreover, the remaining activity at 1.25 µM in assay [2] (Well no.=6676) amounted to 94.8%.
Turning to `O=C(NCCCCCCNC(=O)ON=C1CCCCC1)ON=C1CCCCC1` [RHC 80267], in assay [1] (Well no.=5818), the remaining activity at 3.75 µM was 99.1%. In addition, the remaining activity at 1.25 µM in assay [2] (Well no.=5818) is 96.6%.
Take `CO[C@H]1/C=C/O[C@@]2(C)Oc3c(C)c(O)c4c(O)c(cc(O)c4c3C2=O)NC(=O)/C(C)=C\C=C\[C@H](C)[C@H](O)[C@@H](C)[C@@H](O)[C@@H](C)[C@H](OC(C)=O)[C@@H]1C` [RIFAMYCIN SV]: the remaining activity at 3.75 µM in assay [1] (Well no.=1987) came to 97.9%. Moreover, the remaining activity at 1.25 µM in assay [2] (Well no.=1987) is 105%.
Turning to `CC(C)(C)S(=O)(=O)c1cc2c(Nc3ccc4scnc4c3)ncnc2cc1OCCO` [RIP2 kinase inhibitor 1], the remaining activity at 3.75 µM in assay [1] (Well no.=6932) was found to be 105%. In addition, in assay [2] (Well no.=6932), the remaining activity at 1.25 µM came out at 102%.
In the case of `CCC(C)(C)C(=O)N(O)Cc1ccccc1` [RIPA-56], the remaining activity at 3.75 µM in assay [1] (Well no.=6210) is 92.1%. In assay [2] (Well no.=6210), the remaining activity at 1.25 µM amounted to 90.8%.
Regarding `CCn1cc(-c2ccc3c(c2)CCN3C(=O)Cc2cccc(OC(F)(F)F)c2)c2c(N)ncnc21` [RIPK1-IN-7], the remaining activity at 3.75 µM in assay [1] (Well no.=6824) was 94.4%. Also, the remaining activity at 1.25 µM in assay [2] (Well no.=6824) stood at 94.8%.
As for `OCc1ccc(-c2ccc(-c3ccc(CO)s3)o2)s1` [RITA (NSC 652287)], the remaining activity at 3.75 µM in assay [1] (Well no.=4741) was determined as 108%. The remaining activity at 1.25 µM in assay [2] (Well no.=4741) turned out to be 103%.
With `COc1cc(C(N)=O)ccc1NC(=O)[C@@H]1N[C@@H](CC(C)(C)C)[C@@]2(C(=O)Nc3cc(Cl)ccc32)[C@H]1c1cccc(Cl)c1F` [RO8994], the remaining activity at 3.75 µM in assay [1] (Well no.=7108) was 89.6%. Also, the remaining activity at 1.25 µM in assay [2] (Well no.=7108) came to 92.4%.
Regarding `[N-]=[N+]=N[C@]1(CO)O[C@@H](n2ccc(N)nc2=O)[C@@H](O)[C@@H]1O` [RO-9187], in assay [1] (Well no.=7762), the remaining activity at 3.75 µM came to 101%. Also, in assay [2] (Well no.=7762), the remaining activity at 1.25 µM was 98.5%.
For `C[C@@H](N)[C@H]1CC[C@H](C(=O)Nc2ccncc2)CC1` [ROCK Inhibitor, Y-27632], the remaining activity at 3.75 µM in assay [1] (Well no.=2452) amounted to 98.5%. Moreover, in assay [2] (Well no.=2452), the remaining activity at 1.25 µM is 99.4%.
Regarding `O=C(CBr)N1CC([N+](=O)[O-])([N+](=O)[O-])C1` [RRx-001], the remaining activity at 3.75 µM in assay [1] (Well no.=8632) was 98.9%. For the same molecule, the remaining activity at 1.25 µM in assay [2] (Well no.=8632) came to 105%.
Turning to `O=C1Nc2ccccc2C2(CCN(CCc3ccc(C(F)(F)F)cc3)CC2)O1` [RS102895 (hydrochloride)], the remaining activity at 3.75 µM in assay [1] (Well no.=8003) is 93.3%; in assay [1] (Well no.=8275), 104%. Moreover, the results for the remaining activity at 1.25 µM in assay [2] (Well no.=8003) and in assay [2] (Well no.=8275) were 98.5% and 106%, respectively.
With `CC(C)c1cc(-c2ccc(F)c3ccccc23)nc(N)n1` [RS 127445], in assay [1] (Well no.=8477), the remaining activity at 3.75 µM was 105%. Moreover, the remaining activity at 1.25 µM in assay [2] (Well no.=8477) is 107%.
Consider `Cc1ccc2c(c1)C1(CCN(CCc3nc(-c4ccccc4)oc3C)CC1)OC(=O)N2` [RS 504393], for which the remaining activity at 3.75 µM in assay [1] (Well no.=8391) was 95.2%. Further, in assay [2] (Well no.=8391), the remaining activity at 1.25 µM worked out at 99.2%.
As to `CC(C)c1cc(-c2ccc(F)c3ccccc23)nc(N)n1` [RS-127445], the remaining activity at 3.75 µM in assay [1] (Well no.=4683) stood at 102%. Further, the remaining activity at 1.25 µM in assay [2] (Well no.=4683) worked out at 106%.
For `CC(=O)O[C@@H]1[C@@H](OC(C)=O)[C@@H](O)[C@H](Oc2c(-c3ccc(O)cc3)oc3cc(O)cc(O)c3c2=O)O[C@H]1C` [RSK Inhibitor, SL0101], in assay [1] (Well no.=2635), the remaining activity at 3.75 µM worked out at 97.4%. Further, in assay [2] (Well no.=2635), the remaining activity at 1.25 µM worked out at 95.6%.

These data come from publication PMC8286840, “Identifying SARS-CoV-2 antiviral compounds by screening for small molecule inhibitors of Nsp3 papain-like protease” (Biochemical Journal, 2021).
